From ChEMBL document CHEMBL1909046, “DrugMatrix in vitro pharmacology data”
Where a SMILES comes first, the peptide text is derived from it. Bridges are numbered along the chain shown (N, C = ends). [ ]: non-standard residue; d: D form. The star is where a group is joined. Threoninol(2S,3R) = C[C@@H](O)[C@H](CO)N*

What was measured:
[1] = DRUGMATRIX: Glutamate, NMDA, Phencyclidine radioligand binding (ligand: [3H] TCP); type: cell membranes, Rattus norvegicus, Wistar, Cerebral cortex, Membrane; conditions: Not Active = under 50% inhibition at 10 µM
[2] = target: Beta-2 adrenergic receptor (Homo sapiens, UniProt P07550); test: DRUGMATRIX: Adrenergic beta2 radioligand binding (ligand: [3H] CGP-12177); type: cell membranes, Membrane; conditions: cho; Not Active = under 50% inhibition at 10 µM
Sequence of Beta-2 adrenergic receptor (P07550 whole entry): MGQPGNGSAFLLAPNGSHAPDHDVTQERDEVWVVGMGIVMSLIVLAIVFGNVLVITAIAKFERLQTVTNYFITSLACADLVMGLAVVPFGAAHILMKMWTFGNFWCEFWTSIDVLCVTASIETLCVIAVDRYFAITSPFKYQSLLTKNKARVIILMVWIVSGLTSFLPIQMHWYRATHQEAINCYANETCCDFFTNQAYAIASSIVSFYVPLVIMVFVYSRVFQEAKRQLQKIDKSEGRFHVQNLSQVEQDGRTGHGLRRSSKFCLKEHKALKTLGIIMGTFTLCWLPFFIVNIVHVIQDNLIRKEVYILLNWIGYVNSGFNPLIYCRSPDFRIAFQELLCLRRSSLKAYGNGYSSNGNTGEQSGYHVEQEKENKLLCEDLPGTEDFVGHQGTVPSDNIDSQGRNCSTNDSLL

[3] = target: T1, C-X-C chemokine receptor type 1 (Homo sapiens, UniProt P25024); note: in other assays of this panel Not Active means under 50% inhibition at 10 µM
T1 sequence (P25024 whole entry): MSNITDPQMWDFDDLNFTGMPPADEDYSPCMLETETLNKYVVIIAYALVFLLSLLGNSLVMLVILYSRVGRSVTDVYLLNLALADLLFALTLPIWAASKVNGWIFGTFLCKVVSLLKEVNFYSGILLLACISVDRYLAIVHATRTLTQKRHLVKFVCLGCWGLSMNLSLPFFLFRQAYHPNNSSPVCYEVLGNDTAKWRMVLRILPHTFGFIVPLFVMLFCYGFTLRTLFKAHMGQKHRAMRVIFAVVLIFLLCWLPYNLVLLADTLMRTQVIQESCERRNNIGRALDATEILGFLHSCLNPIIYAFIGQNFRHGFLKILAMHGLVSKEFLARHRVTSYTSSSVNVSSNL

[4] = target: Vascular endothelial growth factor receptor 1 (Homo sapiens, UniProt P17948); type: cell-based; conditions: huvec; note: in other assays of this panel Not Active means under 50% inhibition at 10 µM
Sequence of Vascular endothelial growth factor receptor 1 (P17948 whole entry): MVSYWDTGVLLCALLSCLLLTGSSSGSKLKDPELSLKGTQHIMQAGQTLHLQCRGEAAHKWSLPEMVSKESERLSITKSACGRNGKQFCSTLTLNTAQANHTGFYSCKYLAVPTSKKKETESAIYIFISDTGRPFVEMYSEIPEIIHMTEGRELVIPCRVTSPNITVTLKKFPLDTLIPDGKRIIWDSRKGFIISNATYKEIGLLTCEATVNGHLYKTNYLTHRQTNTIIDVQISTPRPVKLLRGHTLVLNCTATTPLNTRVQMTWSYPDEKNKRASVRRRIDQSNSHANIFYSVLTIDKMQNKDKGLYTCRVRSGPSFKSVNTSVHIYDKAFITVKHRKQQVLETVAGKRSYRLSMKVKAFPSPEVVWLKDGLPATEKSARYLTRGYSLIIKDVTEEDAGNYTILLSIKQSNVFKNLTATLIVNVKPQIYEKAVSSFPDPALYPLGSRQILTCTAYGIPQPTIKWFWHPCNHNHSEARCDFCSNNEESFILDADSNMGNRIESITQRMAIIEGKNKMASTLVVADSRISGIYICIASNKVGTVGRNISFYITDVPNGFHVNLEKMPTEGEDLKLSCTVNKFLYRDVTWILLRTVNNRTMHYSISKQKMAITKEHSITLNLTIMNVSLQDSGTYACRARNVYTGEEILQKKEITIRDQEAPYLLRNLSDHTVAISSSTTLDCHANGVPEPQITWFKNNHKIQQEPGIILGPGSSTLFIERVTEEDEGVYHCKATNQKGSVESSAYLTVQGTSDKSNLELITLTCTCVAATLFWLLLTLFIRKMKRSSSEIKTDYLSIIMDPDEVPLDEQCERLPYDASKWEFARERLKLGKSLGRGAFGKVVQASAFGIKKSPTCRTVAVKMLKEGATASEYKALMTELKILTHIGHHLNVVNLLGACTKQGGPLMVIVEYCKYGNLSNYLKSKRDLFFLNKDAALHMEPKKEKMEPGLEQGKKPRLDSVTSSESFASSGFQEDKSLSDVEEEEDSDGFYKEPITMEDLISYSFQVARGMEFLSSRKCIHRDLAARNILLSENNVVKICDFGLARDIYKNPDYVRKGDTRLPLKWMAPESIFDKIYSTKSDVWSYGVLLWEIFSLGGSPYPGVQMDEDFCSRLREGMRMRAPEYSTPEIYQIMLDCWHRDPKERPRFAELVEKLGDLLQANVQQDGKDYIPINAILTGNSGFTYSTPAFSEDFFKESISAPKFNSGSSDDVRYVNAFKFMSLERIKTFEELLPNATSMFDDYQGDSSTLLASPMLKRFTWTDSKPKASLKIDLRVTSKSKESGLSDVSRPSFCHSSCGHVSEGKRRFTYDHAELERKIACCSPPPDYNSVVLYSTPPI

[5] = DRUGMATRIX: Calcium Channel Type L, Benzothiazepine radioligand binding (ligand: [3H] Diltiazem); type: cell membranes, Rattus norvegicus, Wistar, Brain, Membrane; conditions: Not Active = under 50% inhibition at 10 µM
[6] = DRUGMATRIX: GABAA, Flunitrazepam, Central radioligand binding (ligand: [3H] Flunitrazepam); type: cell membranes, Rattus norvegicus, Wistar, Brain, Membrane; conditions: Not Active = under 50% inhibition at 10 µM
[7] = target: T2, Adenosine receptor A1 (Homo sapiens, UniProt P30542); type: cell membranes, Membrane; conditions: cho;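 note: radioligand binding assay at the adenosine A1 receptor, with DPCPX serving as the labelled ligand; in other assays of this panel Not Active means under 50% inhibition at 10 µM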
T2 sequence (P30542 whole entry): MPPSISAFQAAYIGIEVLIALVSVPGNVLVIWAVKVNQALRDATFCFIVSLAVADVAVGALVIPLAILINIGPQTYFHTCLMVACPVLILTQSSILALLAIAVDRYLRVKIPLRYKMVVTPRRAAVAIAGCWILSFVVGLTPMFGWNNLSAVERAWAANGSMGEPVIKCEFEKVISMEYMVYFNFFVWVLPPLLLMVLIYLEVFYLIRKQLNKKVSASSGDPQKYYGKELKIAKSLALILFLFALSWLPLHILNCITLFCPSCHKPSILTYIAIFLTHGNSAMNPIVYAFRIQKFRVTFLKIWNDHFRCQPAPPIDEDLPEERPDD

[8] = target: T3, Calcitonin receptor (Homo sapiens, UniProt P30988); type: cell membranes, Membrane; conditions: t47d; note: in other assays of this panel Not Active means under 50% inhibition at 10 µM
T3 sequence (P30988 whole entry): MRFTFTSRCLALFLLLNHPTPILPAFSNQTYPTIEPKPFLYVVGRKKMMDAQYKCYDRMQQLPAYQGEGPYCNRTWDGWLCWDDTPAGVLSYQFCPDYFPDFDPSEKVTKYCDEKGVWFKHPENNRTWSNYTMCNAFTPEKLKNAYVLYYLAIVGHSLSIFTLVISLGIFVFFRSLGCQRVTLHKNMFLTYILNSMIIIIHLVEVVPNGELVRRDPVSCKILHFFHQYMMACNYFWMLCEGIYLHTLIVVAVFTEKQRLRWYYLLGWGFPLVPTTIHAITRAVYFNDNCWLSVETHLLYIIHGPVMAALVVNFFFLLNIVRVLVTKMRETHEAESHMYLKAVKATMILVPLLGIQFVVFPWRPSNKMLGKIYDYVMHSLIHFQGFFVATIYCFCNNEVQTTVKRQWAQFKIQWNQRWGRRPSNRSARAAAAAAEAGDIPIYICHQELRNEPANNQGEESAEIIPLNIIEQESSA

COc1cc2c(c3oc(=O)c4c(c13)CCC4=O)[C@@H]1C=CO[C@@H]1O2 [AFLATOXIN]
Not Active: IC50 [1] | Ki [1] | IC50 [2] | Ki [2] | IC50 [3] | Ki [3] | IC50 [4] | Ki [4] | IC50 [5] | Ki [5] | IC50 [6] | Ki [6] | IC50 [7] | Ki [7] | IC50 [8] | Ki [8]

COc1ccc2cc([C@H](C)C(=O)O)ccc2c1 [NAPROXEN]
Not Active: IC50 [1] | Ki [1] | IC50 [2] | IC50 [3] | IC50 [4] | IC50 [5] | Ki [5] | IC50 [6] | Ki [6] | IC50 [7] | IC50 [8]

CC(C)Cc1ccc(C(C)C(=O)O)cc1 (configuration not stated) [IBUPROFEN]
Not Active: IC50 [1] | Ki [1] | IC50 [2] | IC50 [3] | IC50 [4] | IC50 [5] | Ki [5] | IC50 [6] | Ki [6] | IC50 [7] | IC50 [8]

CC(C)(C(=O)c1cccnc1)c1cccnc1 [METYRAPONE]
Not Active: IC50 [1] | Ki [1] | IC50 [2] | IC50 [3] | IC50 [4] | IC50 [5] | Ki [5] | IC50 [6] | Ki [6] | IC50 [7] | IC50 [8]

Cc1ncc([N+](=O)[O-])n1CCO [METRONIDAZOLE]
Not Active: IC50 [1] | Ki [1] | IC50 [2] | IC50 [3] | IC50 [4] | IC50 [5] | Ki [5] | IC50 [6] | Ki [6] | IC50 [7] | IC50 [8]

C[C@@H](O)[C@H](CO)NC(=O)[C@@H]1CSSC[C@H](NC(=O)[C@H](N)Cc2ccccc2)C(=O)N[C@@H](Cc2ccccc2)C(=O)N[C@H](Cc2c[nH]c3ccccc23)C(=O)N[C@@H](CCCCN)C(=O)N[C@@H]([C@@H](C)O)C(=O)N1 (H-[dF]CF[dW]KTC-{Threoninol(2S,3R)}; disulfide 2-7)
Not Active: IC50 [1] | Ki [1] | IC50 [2] | IC50 [3] | IC50 [4] | IC50 [5] | Ki [5] | IC50 [6] | Ki [6] | IC50 [7] | IC50 [8]

COc1ccc2[nH]c([S+]([O-])Cc3ncc(C)c(OC)c3C)nc2c1 (configuration not stated) [OMEPRAZOLE]
Not Active: IC50 [1] | Ki [1] | IC50 [2] | IC50 [3] | IC50 [4] | IC50 [5] | Ki [5] | IC50 [6] | Ki [6] | IC50 [7] | IC50 [8]
